Results as given in patent US20260165976A1, “ANTI-EVAPORATIVE LIPID FORMULATIONS” (UNIVERSITY OF HELSINKI, priority 2022, published 2026).
“Also recorded” adds a separate entry of the source.

Experiments:
Type in all cases: physicochemical
[1] = Surface pressure isotherms and Brewster angle microscopy of films on a Langmuir trough; settings: PBS subphase, 35±1° C.
Description: (§1) The lipid components and tailored mixtures dissolved in chloroform, or alternatively, the formulations undergoing characterization studies were spread onto the air-buffer interface of a Langmuir trough, either a Mini trough (KSV, Helsinki, Finland) or a Large trough (KSV NIMA, Biolin Scientific, Espoo, Finland), which was filled with PBS buffer. The samples were allowed to equilibrate for 3 min before starting the measurements. The surface pressure was measured using a Wilhelmy plate, the surface potential was measured using a KSV NIMA Surface Potential Sensor (Espoo, Finland) when relevant and Brewster angle microscopy (BAM) images were captured using a KSV NIMA microBAM (Espoo, Finland) instrument. The films were compressed at a constant rate of 5 or 10 mm/min and the subphase temperature was maintained at 35±1° C. The measurements were performed in an acrylic box under an ozone-free atmosphere to prevent undesired oxidation of the lipids. An ozone-free atmosphere was generated by passing dry air through ODS-3P ozone destruct unit (Ozone solutions, Hull, Iowa) and into the enclosure at a rate of 76 l/min.

[2] = Evaporation resistance / evaporation reduction of lipid films (modified Langmuir and Schaefer method); settings: for evaporation resistance of phospholipid films: FIG. 13C; for evaporation resistance of OAHFA films: individual lipid film on PBS subphase, 35±1° C., FIG. 2
Description: as §1
The adaptive features of the formulations were uncovered through studying the spreading capabilities of the lipid films over compression-expansion cycles using the Langmuir setup. In more detail, the volume employed of each formulation was the volume required to observe a response in the surface pressure isotherm over one compression-expansion cycle. Altogether, the films were subjected to twenty compression-expansion cycles employing a 50 mm/min. compression/expansion rate and the changes in the surface pressure isotherms were monitored as described above. Evaporation resistance was determined by a modified Langmuir and Schaefer method (Langmuir et al, 1943, J Franklin Inst, 235, 119-162). The measurements were conducted by compressing the film to a specific mean molecular area, ranging between 2-40 Å^2/molecule (for individual compounds), or a specified area (for formulations) and placing a tailored desiccant cartridge, with a water-permeable membrane, approximately 2 mm above the aqueous surface. The commercial silica gel containing desiccant cartridges (SP Industries, Warminster, PA) were modified by replacing the membrane with a Millipore Immobilon-P PVDF membrane (450 nm pore size, Bedford, MA). The desiccant cartridge was fixed in position for 5 minutes and the mass of the absorbed water was determined by gravimetric techniques. In order to take into account the water absorbed from the air inside the enclosure, a second background measurement was conducted in parallel inside the enclosed acrylic box. From the measurements, the evaporation resistance was calculated with the equation (1).
The terms used in the equation are as follows: Adesicant=area of the desiccant cartridge; • t=measuring time; (w-w0)=water concentration difference between the aqueous surface and the surface of the desiccant cartridge; m(I)=water amount absorbed in the presence of the lipid film; mPBS(0)=water amount absorbed in the absence of the lipid film; Δmtot=mass of evaporated water during the measurement; ti=time point D=diffusion coefficient; ρ=water density; ATrough=area of the Langmuir Trough.
The evaporation reduction was determined as the total reduction of water absorbed by a desiccant cartridge when a lipid film was covering the subphase versus the situation when the lipid film was absent. Equation (2) was utilized in the calculations.

[3] = Differential scanning calorimetry (DSC) of active components, phospholipids and liposomal formulations; settings: heating 10° C./min, triplicate; for Peak Tm1 ± SD / Onset Tm2 ± SD / Peak Tm2 ± SD: in °C (unit assumed)
Description: Differential scanning calorimetry (DSC 2500 with an RCS90 cooling unit; TA instruments, Newcastle, DE, USA) was utilized to study the thermal properties of the active compounds. Nitrogen (N2) was utilized as the purge gas at rate of 50 mL/min during the measurements. […] of the active components were placed into aluminum pans with manually made pin holes (DSC Consumables incorporated, Austin, Minnesota, USA). The samples were subsequently sealed and analyzed with DSC utilizing the TRIOS® software (TA instruments, Newcastle, DE, USA). All results were compared to an empty reference pan containing a pin hole. Each measurement was performed in triplicate. Briefly, the samples were cooled to 0° C., then heated from 0° C. to 75° C. at a rate of 10° C./min. Then, the samples were kept isothermally at 75° C. for 10 min, after which they were equilibrated to −50° C. at an uncontrolled rate. Ultimately, the samples were heated again to 75° C. at a rate of 10° C./min.
The phospholipid bilayer phase transition behavior was studied to assess whether successful integration of the active components into the phospholipid bilayer had been achieved or not. The studies were performed in a similar fashion as described for active components above. In this case, 20 μL of a formulation was pipetted into the aluminum pans (DSC Consumables incorporated, Austin, Minnesota, USA), which were subsequently sealed and analyzed with DSC employing the TRIOS® software (TA instruments, Newcastle, DE, USA). The samples were cooled and equilibrated to 5° C., then heated from 5° C. to 70-85° C. at a rate of 10° C./min and the results were compared to the reference pan containing the liquid used to hydrate the lipid film. All prepared liposomal formulations which viscosity were low enough to be pipetted, were analyzed by DSC and compared to the thermograms obtained from liposomes containing only the PC-component and the thermograms obtained for the active components.

Compound	Onset Tm1 ± SD [3]	Peak Tm1 ± SD [3]	evaporation resistance of OAHFA films [2]	further results
CCCCCCCCCCCCCCCCCC(=O)OC[C@H](COP(=O)([O-])OCC(O)CO)OC(=O)CCCCCCCCCCCCCCCCC.[Na+] (mixture of isomers) [18:0 PG, 1,2-distearoyl-sn-glycero-3-phospho-rac-(1-glycerol) sodium salt]	–	–	–	phase behaviour of the film (surface pressure isotherm, BAM) ([1]; sodium salt): suitable properties; also recorded: phase transition occurring at a low surface pressure; evaporation resistance of phospholipid films [2]: highest evaporation resistance
CCCCCCCCCCCCCCCCCCO [1-Octadecanol, octadecanol]	56.49 ± 0.49	57.61 ± 0.22	–	evaporation resistance of long chain fatty alcohols ([2]; FIG. 5): most promising species
CCCCCCCC/C=C\CCCCCCCC(=O)OCCCCCCCCCCCC(=O)O [12:0/18:1-OAHFA, 12-(oleoyloxy)dodecanoic acid]	–	–	significantly weaker evaporation-resistant properties	–
CCCCCCCC/C=C\CCCCCCCC(=O)OCCCCCCCCCCCCCCC(=O)O [15:0/18:1-OAHFA, 15-(oleoyloxy)pentadecanoic acid]	–	–	significantly weaker evaporation-resistant properties	–
CCCCCCCCCCCCCCCC(=O)OC[C@H](COP(=O)(O)OCCN)OC(=O)CCCCCCCCCCCCCCC [16:0 PE, 1,2-dipalmitoyl-sn-glycero-3-phosphoethanolamine]	–	–	–	phase behaviour of the film (surface pressure isotherm, BAM) [1]: suitable properties
CCCCCCCCCCCCCCCCCC(=O)OC[C@H](COP(=O)(O)OCCN)OC(=O)CCCCCCCCCCCCCCCCC [18:0 PE, 1,2-distearoyl-sn-glycero-3-phosphoethanolamine]	–	–	–	phase behaviour of the film (surface pressure isotherm, BAM) [1]: suitable properties; evaporation resistance of phospholipid films [2]: highest evaporation resistance
CCCCCCCCCCCCCCCCCC(=O)OC[C@H](COP(=O)(O)OC[C@H](N)C(=O)[O-])OC(=O)CCCCCCCCCCCCCCCCC.[Na+] [18:0 PS, 1,2-distearoyl-sn-glycero-3-phospho-L-serine (sodium salt)]	–	–	–	phase behaviour of the film (surface pressure isotherm, BAM) [1]: suitable properties
CCCCCCCC/C=C\CCCCCCCC(=O)OCCCCCCCCCCCCCCCCCC(=O)O [18:0/18:1-OAHFA, 18-(oleoyloxy)octadecanoic acid]	54.92 ± 0.87	56.50 ± 0.64	displays evaporation resistance; also recorded: highest evaporation resistance	phase behaviour of the film (surface pressure isotherm, BAM) [1]: does undergo a liquid to solid phase transition; surface activity / spreading ability [1]: surface active lipids
CCCCCCCC/C=C\CCCCCCCC(=O)OCCCCCCCCCCCCCCCCCCCC(=O)O [20:0/18:1-OAHFA, 20-(oleoyloxy)eicosanoic acid]	41.65 ± 1.16	46.54 ± 0.18	reasonable degree of evaporation resistance	Onset Tm2 ± SD [3]: 56.89 ± 1.42; Peak Tm2 ± SD [3]: 59.52 ± 0.38
CCCCCCCC/C=C\CCCCCCCC(=O)OCCCCCCC/C=C\CCCCCCCCCCC(=O)O [20:1/18:1-OAHFA, (12Z)-20-(oleoyloxy)eicos-12-enoic acid]	–	–	significantly weaker evaporation-resistant properties	phase behaviour of the film (surface pressure isotherm, BAM) [1]: does not undergo a phase transition; surface activity / spreading ability [1]: surface active lipids
CCCCCCCC/C=C\CCCCCCCC(=O)OCCCCCCCCCCCCCCCCCCCCCC(=O)O [22:0/18:1-OAHFA, 22-(oleoyloxy)docosanoic acid]	–	–	reasonable degree of evaporation resistance	–
CCCCCCCC/C=C\CCCCCCCC(=O)OCCCCCCC/C=C\CCCCCCCCCCCCCCCCCCCC(=O)O [29:1/18:1-OAHFA, (21Z)-29-(oleoyloxy)nonacos-21-enoic acid]	–	–	reasonable degree of evaporation resistance	–
CCCCCCCC/C=C\CCCCCCCC(=O)OCCCCCCCCCCCCCCCCCCCCCC [BO, behenyl oleate]	34.48 ± 0.05	36.74 ± 0.92	–	–
CCCCCCCCCCCCCCCCCCCC(=O)OC[C@H](COP(=O)([O-])OCC[N+](C)(C)C)OC(=O)CCCCCCCCCCCCCCCCCCC [DAPC, 1,2-diarachidoyl-sn-glycero-3-phosphatidylcholine]	63.04 ± 0.21	64.87 ± 0.05	–	–
CCCCCCCCCCCCCC(=O)OC[C@H](COP(=O)([O-])OCC[N+](C)(C)C)OC(=O)CCCCCCCCCCCCC [DMPC, 1,2-dimyristoyl-sn-glycero-3-phosphocholine]	17.37 ± 0.69	22.74 ± 1.57	–	–
CCCCCCCCCCCCCCCCCC(=O)OC[C@H](COP(=O)([O-])OCC[N+](C)(C)C)OC(=O)CCCCCCCCCCCCCCCCC [DSPC, 1,2-distearoyl-sn-glycero-3-phosphocholine]	50.13 ± 0.29	54.67 ± 0.18	–	–
CCCCCCCC/C=C\CCCCCCCCOC(=O)CCCCCCCCCCCCCCCCC(=O)O [R-18:0/18:1-OAHFA, 18-(oleyloxy)-18-oxo-octadecanoic acid]	55.00 ± 0.87	57.53 ± 0.95	reasonable degree of evaporation resistance	Onset Tm2 ± SD [3]: 63.20 ± 0.28; Peak Tm2 ± SD [3]: 63.88 ± 0.14
CCCCCCCC/C=C\CCCCCCCCOC(=O)CCCCCCCCCCCCCCCCCCC(=O)O [R-20:0/18:1-OAHFA, 20-(oleyloxy)-20-oxo-eicosanoic acid]	–	–	reasonable degree of evaporation resistance	–
